Where “and” joins values, the source holds several entries; their conditions need not be identical. Equal entries are not always repeated.
Assay: molar heat capacity at constant pressure
Settings: 101.33 kPa, Vacuum adiabatic calorimetry

CCC[n+]1ccn(C)c1.[Br-] [1-methyl-3-propylimidazolium bromide]
molar heat capacity at constant pressure
Settings	Crystal 2	Liquid
228.67 K	177 J/K/mol	–
229.42 K	177.5 J/K/mol	–
230 K	177.8 J/K/mol	261.5 J/K/mol
230.71 K	178.2 J/K/mol	–
231.48 K	178.7 J/K/mol	–
233.47 K	180 J/K/mol	–
233.54 K	180 J/K/mol	–
235.59 K	181.3 J/K/mol	–
235.81 K	181.5 J/K/mol	–
237.64 K	182.5 J/K/mol	–
237.86 K	182.7 J/K/mol	–
239.69 K	183.9 J/K/mol	–
239.9 K	184.1 J/K/mol	–
240 K	184.1 J/K/mol	263.8 J/K/mol
241.74 K	185.1 J/K/mol	–
241.94 K	185.3 J/K/mol	–
243.78 K	186.4 J/K/mol	–
243.99 K	186.6 J/K/mol	–
245.82 K	187.8 J/K/mol	–
246.03 K	187.9 J/K/mol	–
247.86 K	189.1 J/K/mol	–
248.07 K	189.3 J/K/mol	–
249.89 K	190.6 J/K/mol	–
250 K	190.6 J/K/mol	266.2 J/K/mol
250.11 K	190.7 J/K/mol	–
251.92 K	192 J/K/mol	–
252.16 K	192.2 J/K/mol	–
253.95 K	193.4 J/K/mol	–
254.2 K	193.6 J/K/mol	–
255.97 K	194.9 J/K/mol	–
256.25 K	195.1 J/K/mol	–
257.98 K	196.4 J/K/mol	–
258.29 K	196.7 J/K/mol	–
260 K	198 J/K/mol and 198.1 J/K/mol	269.1 J/K/mol
260.33 K	198.3 J/K/mol	–
262 K	199.6 J/K/mol	–
262.37 K	199.9 J/K/mol	–
264.01 K	201.2 J/K/mol	–
264.42 K	201.7 J/K/mol	–
266.06 K	203.2 J/K/mol	–
266.47 K	203.4 J/K/mol	–
268.16 K	205.1 J/K/mol	–
268.52 K	205.3 J/K/mol	–
270 K	206.7 J/K/mol	272 J/K/mol
270.26 K	207.1 J/K/mol	–
270.57 K	207.1 J/K/mol	–
272.36 K	209.2 J/K/mol	–
272.62 K	209.4 J/K/mol	–
274.45 K	211.5 J/K/mol	–
274.67 K	211.5 J/K/mol	–
276.54 K	213.9 J/K/mol	–
276.71 K	213.9 J/K/mol	–
278.62 K	216.6 J/K/mol	–
278.75 K	216.6 J/K/mol	–
280 K	216.4 J/K/mol	275.1 J/K/mol
280.68 K	219.5 J/K/mol	–
280.79 K	219.5 J/K/mol	–
282.74 K	222.7 J/K/mol	–
282.84 K	222.7 J/K/mol	–
284.78 K	226.4 J/K/mol	–
284.88 K	226.6 J/K/mol	–
286.82 K	230.9 J/K/mol	–
288.82 K	236.3 J/K/mol	–
290 K	227.1 J/K/mol	278.2 J/K/mol
290.81 K	242.8 J/K/mol	–
292.77 K	251.5 J/K/mol	–
294.69 K	262.7 J/K/mol	–
295.89 K	–	280.2 J/K/mol
296.57 K	278.5 J/K/mol	–
297.86 K	–	280.6 J/K/mol
298.15 K	–	280.8 J/K/mol
298.39 K	300.9 J/K/mol	–
299.92 K	–	281.4 J/K/mol
300 K	–	281.4 J/K/mol
300.12 K	334.9 J/K/mol	–
301.74 K	387.4 J/K/mol	–
301.97 K	–	282 J/K/mol
303.2 K	470.7 J/K/mol	–
304.02 K	–	282.8 J/K/mol
304.47 K	613.7 J/K/mol	–
305.51 K	844.2 J/K/mol	–
306.07 K	–	283.2 J/K/mol
306.32 K	1193 J/K/mol	–
306.93 K	1697 J/K/mol	–
308.12 K	–	284.1 J/K/mol
309.54 K	251.4 J/K/mol	284.6 J/K/mol
310 K	–	284.7 J/K/mol
310.17 K	–	284.7 J/K/mol
312.01 K	–	285.5 J/K/mol
312.22 K	–	285.3 J/K/mol
314.27 K	–	285.9 J/K/mol
316.32 K	–	286.9 J/K/mol
318.37 K	–	287.5 J/K/mol
320 K	–	288.1 J/K/mol
320.41 K	–	288.2 J/K/mol
322.46 K	–	288.8 J/K/mol
324.5 K	–	289.6 J/K/mol
326.54 K	–	290.4 J/K/mol
328.58 K	–	291 J/K/mol
330 K	–	291.7 J/K/mol
330.62 K	–	291.9 J/K/mol
332.66 K	–	292.7 J/K/mol
334.7 K	–	293.3 J/K/mol
336.73 K	–	294.1 J/K/mol
338.61 K	–	294.7 J/K/mol
340 K	–	295.3 J/K/mol
340.58 K	–	295.5 J/K/mol
342.63 K	–	296.2 J/K/mol
344.68 K	–	297 J/K/mol
346.73 K	–	297.8 J/K/mol
348.78 K	–	298.6 J/K/mol
350 K	–	299.1 J/K/mol
350.82 K	–	299.4 J/K/mol
352.87 K	–	300.3 J/K/mol
354.92 K	–	300.9 J/K/mol
356.97 K	–	301.7 J/K/mol
359.01 K	–	302.5 J/K/mol
360 K	–	303 J/K/mol
361.05 K	–	303.5 J/K/mol
363.1 K	–	304.2 J/K/mol
365.14 K	–	305 J/K/mol
367.18 K	–	305.8 J/K/mol
370 K	–	307 J/K/mol

— the NIST ThermoML archive (doi:10.1016/j.jct.2014.07.018)
